Reference: ChEMBL document CHEMBL4020788, “Synthesis, SAR and molecular docking studies of benzo[d]thiazole-hydrazones as potential antibacterial and antifungal agents” (2017)
The source made the active and inactive calls. The calls are words filed in the database; no cut-off is given here.

Experiments:
Assay type in all cases: functional
Fusarium verticillioides [1] = experiment: Antifungal activity against Fusarium moniliforme at 75 ug/ml after 48 hrs by agar well diffusion method
Klebsiella pneumoniae [2] = experiment: Antibacterial activity against Klebsiella pneumoniae at 50 ug/ml after 24 hrs by agar well diffusion method
Aspergillus niger [3] = experiment: Antifungal activity against Aspergillus niger at 50 ug/ml after 48 hrs by agar well diffusion method
Escherichia coli [4] = experiment: Antibacterial activity against Escherichia coli at 100 ug/ml after 24 hrs by agar well diffusion method; conditions: read-out: DIZ
Staphylococcus aureus [5] = experiment: Antibacterial activity against Staphylococcus aureus at 50 ug/ml after 24 hrs by agar well diffusion method
Aspergillus niger [6] = experiment: Antifungal activity against Aspergillus niger at 75 ug/ml after 48 hrs by agar well diffusion method
Fusarium oxysporum [7] = experiment: Antifungal activity against Fusarium oxysporum at 50 ug/ml after 48 hrs by agar well diffusion method; conditions: read-out: DIZ
Escherichia coli [8] = experiment: Antibacterial activity against Escherichia coli at 50 ug/ml after 24 hrs by agar well diffusion method; conditions: read-out: DIZ
Staphylococcus aureus [9] = experiment: Antibacterial activity against methicillin resistant Staphylococcus aureus MRSA090 at 25 ug/ml after 24 hrs by agar well diffusion method; conditions: MRSA090, 24 h, read-out: DIZ
Klebsiella pneumoniae [10] = experiment: Antibacterial activity against Klebsiella pneumoniae at 100 ug/ml after 24 hrs by agar well diffusion method
Staphylococcus aureus [11] = experiment: Antibacterial activity against Staphylococcus aureus at 75 ug/ml after 24 hrs by agar well diffusion method
Fusarium verticillioides [12] = experiment: Antifungal activity against Fusarium moniliforme at 50 ug/ml after 48 hrs by agar well diffusion method
Staphylococcus aureus [13] = experiment: Antibacterial activity against Staphylococcus aureus at 25 ug/ml after 24 hrs by agar well diffusion method
Klebsiella pneumoniae [14] = experiment: Antibacterial activity against Klebsiella pneumoniae at 25 ug/ml after 24 hrs by agar well diffusion method
Staphylococcus aureus [15] = experiment: Antibacterial activity against methicillin resistant Staphylococcus aureus MRSA090 at 100 ug/ml after 24 hrs by agar well diffusion method; conditions: MRSA090, 24 h, read-out: DIZ
Bacillus subtilis [16] = experiment: Antibacterial activity against Bacillus subtilis at 100 ug/ml after 24 hrs by agar well diffusion method
Fusarium oxysporum [17] = experiment: Antifungal activity against Fusarium oxysporum at 25 ug/ml after 48 hrs by agar well diffusion method; conditions: read-out: DIZ
Fusarium oxysporum [18] = experiment: Antifungal activity against Fusarium oxysporum at 100 ug/ml after 48 hrs by agar well diffusion method; conditions: read-out: DIZ
Fusarium oxysporum [19] = experiment: Antifungal activity against Fusarium oxysporum at 75 ug/ml after 48 hrs by agar well diffusion method; conditions: read-out: DIZ
Aspergillus niger [20] = experiment: Antifungal activity against Aspergillus niger at 100 ug/ml after 48 hrs by agar well diffusion method
Staphylococcus aureus [21] = experiment: Antibacterial activity against Staphylococcus aureus at 100 ug/ml after 24 hrs by agar well diffusion method; conditions: read-out: DIZ
Escherichia coli [22] = experiment: Antibacterial activity against Escherichia coli at 75 ug/ml after 24 hrs by agar well diffusion method; conditions: read-out: DIZ
Fusarium verticillioides [23] = experiment: Antifungal activity against Fusarium moniliforme at 100 ug/ml after 48 hrs by agar well diffusion method
Bacillus subtilis [24] = experiment: Antibacterial activity against Bacillus subtilis at 75 ug/ml after 24 hrs by agar well diffusion method
Escherichia coli [25] = experiment: Antibacterial activity against Escherichia coli at 25 ug/ml after 24 hrs by agar well diffusion method; conditions: read-out: DIZ
Klebsiella pneumoniae [26] = experiment: Antibacterial activity against Klebsiella pneumoniae at 75 ug/ml after 24 hrs by agar well diffusion method
Fusarium verticillioides [27] = experiment: Antifungal activity against Fusarium moniliforme at 25 ug/ml after 48 hrs by agar well diffusion method
Bacillus subtilis [28] = experiment: Antibacterial activity against Bacillus subtilis at 50 ug/ml after 24 hrs by agar well diffusion method
Bacillus subtilis [29] = experiment: Antibacterial activity against Bacillus subtilis at 25 ug/ml after 24 hrs by agar well diffusion method
Staphylococcus aureus [30] = experiment: Antibacterial activity against methicillin resistant Staphylococcus aureus MRSA090 at 75 ug/ml after 24 hrs by agar well diffusion method; conditions: MRSA090, 24 h, read-out: DIZ
Aspergillus niger [31] = experiment: Antifungal activity against Aspergillus niger at 25 ug/ml after 48 hrs by agar well diffusion method
Staphylococcus aureus [32] = experiment: Antibacterial activity against methicillin resistant Staphylococcus aureus MRSA090 at 50 ug/ml after 24 hrs by agar well diffusion method; conditions: MRSA090, 24 h, read-out: DIZ

With `COc1cc(/C=N/Nc2nc3cccc(C)c3s2)cc(Br)c1O` as the molecule, how does the zone of inhibition at 75 µg/mL (Fusarium verticillioides [1]; read-out: DIZ) read?
The zone of inhibition at 75 µg/mL was 17 mm.

What about the zone of inhibition at 50 µg/mL (Klebsiella pneumoniae [2]; read-out: DIZ) of the same molecule?
The zone of inhibition at 50 µg/mL was 14 mm.

What about the zone of inhibition at 50 µg/mL (Aspergillus niger [3]; read-out: DIZ) of the same molecule?
Its zone of inhibition at 50 µg/mL is 11 mm.

And the zone of inhibition at 100 µg/mL (Escherichia coli [4])?
Its zone of inhibition at 100 µg/mL is 21 mm.

What about the zone of inhibition at 50 µg/mL (Staphylococcus aureus [5]; read-out: DIZ) of the same molecule?
The zone of inhibition at 50 µg/mL was 10 mm.

And the zone of inhibition at 75 µg/mL (Aspergillus niger [6]; read-out: DIZ)?
Its zone of inhibition at 75 µg/mL is 16 mm.

What about the zone of inhibition at 50 µg/mL (Fusarium oxysporum [7]) of the same molecule?
The zone of inhibition at 50 µg/mL was 14 mm.

What about the zone of inhibition at 50 µg/mL (Escherichia coli [8]) of the same molecule?
Its zone of inhibition at 50 µg/mL is 15 mm.

And the zone of inhibition at 25 µg/mL (Staphylococcus aureus [9])?
The zone of inhibition at 25 µg/mL was 7 mm.

And the zone of inhibition at 100 µg/mL (Klebsiella pneumoniae [10]; read-out: DIZ)?
The zone of inhibition at 100 µg/mL was 21 mm.

And the zone of inhibition at 75 µg/mL (Staphylococcus aureus [11]; read-out: DIZ)?
The zone of inhibition at 75 µg/mL was 13 mm.

What about the zone of inhibition at 50 µg/mL (Fusarium verticillioides [12]; read-out: DIZ) of the same molecule?
The zone of inhibition at 50 µg/mL was 13 mm.

And the zone of inhibition at 25 µg/mL (Staphylococcus aureus [13]; read-out: DIZ)?
Its zone of inhibition at 25 µg/mL is 8 mm.

And the zone of inhibition at 25 µg/mL (Klebsiella pneumoniae [14]; read-out: DIZ)?
Its zone of inhibition at 25 µg/mL is 9 mm.

And the zone of inhibition at 100 µg/mL (Staphylococcus aureus [15])?
Its zone of inhibition at 100 µg/mL is 20 mm.

What about the zone of inhibition at 100 µg/mL (Bacillus subtilis [16]; read-out: DIZ) of the same molecule?
Its zone of inhibition at 100 µg/mL is 17 mm.

What about the zone of inhibition at 25 µg/mL (Fusarium oxysporum [17]) of the same molecule?
The zone of inhibition at 25 µg/mL was 8 mm.

And the zone of inhibition at 100 µg/mL (Fusarium oxysporum [18])?
Its zone of inhibition at 100 µg/mL is 20 mm.

And the zone of inhibition at 75 µg/mL (Fusarium oxysporum [19])?
The zone of inhibition at 75 µg/mL was 17 mm.

And the zone of inhibition at 100 µg/mL (Aspergillus niger [20]; read-out: DIZ)?
Its zone of inhibition at 100 µg/mL is 18 mm.

What about the zone of inhibition at 100 µg/mL (Staphylococcus aureus [21]) of the same molecule?
The zone of inhibition at 100 µg/mL was 16 mm.

And the zone of inhibition at 75 µg/mL (Escherichia coli [22])?
Its zone of inhibition at 75 µg/mL is 19 mm.

What about the zone of inhibition at 100 µg/mL (Fusarium verticillioides [23]; read-out: DIZ) of the same molecule?
The zone of inhibition at 100 µg/mL was 20 mm.

And the zone of inhibition at 75 µg/mL (Bacillus subtilis [24]; read-out: DIZ)?
The zone of inhibition at 75 µg/mL was 13 mm.

And the zone of inhibition at 25 µg/mL (Escherichia coli [25])?
The zone of inhibition at 25 µg/mL was 11 mm.

And the zone of inhibition at 75 µg/mL (Klebsiella pneumoniae [26]; read-out: DIZ)?
Its zone of inhibition at 75 µg/mL is 17 mm.

And the zone of inhibition at 25 µg/mL (Fusarium verticillioides [27]; read-out: DIZ)?
The zone of inhibition at 25 µg/mL was 9 mm.

What about the zone of inhibition at 50 µg/mL (Bacillus subtilis [28]; read-out: DIZ) of the same molecule?
The zone of inhibition at 50 µg/mL was 9 mm.

And the zone of inhibition at 25 µg/mL (Bacillus subtilis [29]; read-out: DIZ)?
The zone of inhibition at 25 µg/mL was 5 mm.

And the zone of inhibition at 75 µg/mL (Staphylococcus aureus [30])?
Its zone of inhibition at 75 µg/mL is 19 mm.

And the zone of inhibition at 25 µg/mL (Aspergillus niger [31]; read-out: DIZ)?
The zone of inhibition at 25 µg/mL was 7 mm.

And the zone of inhibition at 50 µg/mL (Staphylococcus aureus [32])?
Its zone of inhibition at 50 µg/mL is 13 mm.

For `Cc1ccc(/C=N/Nc2nc3cccc(C)c3s2)cc1`, which “diameter of the inhibition zone (DIZ)” value (Fusarium verticillioides [1]) is on record?
Its value is “inactive”.

What about the “diameter of the inhibition zone (DIZ)” value (Klebsiella pneumoniae [2]) of the same molecule?
Its value is “inactive”.

What about the “diameter of the inhibition zone (DIZ)” value (Aspergillus niger [3]) of the same molecule?
The value was “inactive”.

What about the zone of inhibition at 100 µg/mL (Escherichia coli [4]) of the same molecule?
Its zone of inhibition at 100 µg/mL is 22 mm.

And the “diameter of the inhibition zone (DIZ)” value (Staphylococcus aureus [5])?
The value was “inactive”.

What about the “diameter of the inhibition zone (DIZ)” value (Aspergillus niger [6]) of the same molecule?
The value was “inactive”.

And the zone of inhibition at 50 µg/mL (Fusarium oxysporum [7])?
The zone of inhibition at 50 µg/mL was 11 mm.

What about the zone of inhibition at 50 µg/mL (Escherichia coli [8]) of the same molecule?
The zone of inhibition at 50 µg/mL was 14 mm.

And the zone of inhibition at 25 µg/mL (Staphylococcus aureus [9])?
Its zone of inhibition at 25 µg/mL is 6 mm.

What about the “diameter of the inhibition zone (DIZ)” value (Klebsiella pneumoniae [10]) of the same molecule?
Its value is “inactive”.

What about the “diameter of the inhibition zone (DIZ)” value (Staphylococcus aureus [11]) of the same molecule?
Its value is “inactive”.

And the “diameter of the inhibition zone (DIZ)” value (Fusarium verticillioides [12])?
Its value is “inactive”.

And the “diameter of the inhibition zone (DIZ)” value (Staphylococcus aureus [13])?
The value was “inactive”.

What about the “diameter of the inhibition zone (DIZ)” value (Klebsiella pneumoniae [14]) of the same molecule?
Its value is “inactive”.

And the zone of inhibition at 100 µg/mL (Staphylococcus aureus [15])?
The zone of inhibition at 100 µg/mL was 17 mm.

What about the “diameter of the inhibition zone (DIZ)” value (Bacillus subtilis [16]) of the same molecule?
Its value is “inactive”.

What about the zone of inhibition at 25 µg/mL (Fusarium oxysporum [17]) of the same molecule?
Its zone of inhibition at 25 µg/mL is 7 mm.

And the zone of inhibition at 100 µg/mL (Fusarium oxysporum [18])?
Its zone of inhibition at 100 µg/mL is 17 mm.

And the zone of inhibition at 75 µg/mL (Fusarium oxysporum [19])?
The zone of inhibition at 75 µg/mL was 14 mm.

What about the “diameter of the inhibition zone (DIZ)” value (Aspergillus niger [20]) of the same molecule?
Its value is “inactive”.

What about the zone of inhibition at 100 µg/mL (Staphylococcus aureus [21]) of the same molecule?
Its zone of inhibition at 100 µg/mL is 10 mm.

What about the zone of inhibition at 75 µg/mL (Escherichia coli [22]) of the same molecule?
The zone of inhibition at 75 µg/mL was 17 mm.

And the “diameter of the inhibition zone (DIZ)” value (Fusarium verticillioides [23])?
The value was “inactive”.

What about the “diameter of the inhibition zone (DIZ)” value (Bacillus subtilis [24]) of the same molecule?
The value was “inactive”.

And the zone of inhibition at 25 µg/mL (Escherichia coli [25])?
Its zone of inhibition at 25 µg/mL is 10 mm.

And the “diameter of the inhibition zone (DIZ)” value (Klebsiella pneumoniae [26])?
Its value is “inactive”.

What about the “diameter of the inhibition zone (DIZ)” value (Fusarium verticillioides [27]) of the same molecule?
The value was “inactive”.

And the “diameter of the inhibition zone (DIZ)” value (Bacillus subtilis [28])?
The value was “inactive”.

What about the “diameter of the inhibition zone (DIZ)” value (Bacillus subtilis [29]) of the same molecule?
Its value is “inactive”.

What about the zone of inhibition at 75 µg/mL (Staphylococcus aureus [30]) of the same molecule?
Its zone of inhibition at 75 µg/mL is 14 mm.

And the “diameter of the inhibition zone (DIZ)” value (Aspergillus niger [31])?
Its value is “inactive”.

And the zone of inhibition at 50 µg/mL (Staphylococcus aureus [32])?
The zone of inhibition at 50 µg/mL was 10 mm.
